What was measured:
Assay in all cases: Post-Emergent Test I herbicidal activity
Assay type in all cases: in vivo
ZEAMX: corn (Zea mays) = conditions: Zea mays, post-emergence, 336 h, read-out: Visual Growth Reduction (%)-14 Days after Application ZEAMX; for pest or weed control at 140 g/ha: Table 3, 140 g ai/ha; for pest or weed control at 70 g/ha: Table 3, 70 g ai/ha
Method: (§1) Seeds or nutlets of the desired test plant species were planted in Sun Gro Metro-Mix® 360 planting mixture, which typically has a pH of 6.0 to 6.8 and an organic matter content of about 30 percent, in plastic pots with a surface area of 64 square centimeters. When required to ensure good germination and healthy plants, a fungicide treatment and/or other chemical or physical treatment was applied. The plants were grown for 7-21 d in a greenhouse with an approximate 15 h photoperiod which was maintained at about 23-29° C. during the day and 22-28° C. during the night. Nutrients and water were added on a regular basis and supplemental lighting was provided with overhead metal halide 1000-Watt lamps as necessary. The plants were employed for testing when they reached the first or second true leaf stage.
(§2) A weighed amount, determined by the highest rate to be tested, of each test compound was placed in a 25 mL glass vial and was dissolved in 4 mL of a 97:3 v/v mixture of acetone and DMSO to obtain concentrated stock solutions. […] The concentrated stock solutions obtained were diluted with 20 mL of an aqueous mixture containing acetone, water, isopropyl alcohol, DMSO, Atplus 411F crop oil concentrate, and Triton® X-155 surfactant in a 48.5:39:10:1.5:1.0:0.02 v/v ratio to obtain spray solutions containing the highest application rates. Additional application rates were obtained by serial dilution of 12 mL of the high rate solution into a solution containing 2 mL of 97:3 v/v mixture of acetone and DMSO and 10 mL of an aqueous mixture containing acetone, water, isopropyl alcohol, DMSO, Atplus 411F crop oil concentrate, and Triton X-155 surfactant in a 48.5:39:10:1.5:1.0:0.02 v/v ratio to obtain ½×, ¼×, ⅛× and 1/16× rates of the high rate. Compound requirements are based upon a 12 mL application volume at a rate of 187 liters per hectare (L/ha). Formulated compounds were applied to the plant material with an overhead Mandel track sprayer equipped with 8002E nozzles calibrated to deliver 187 L/ha over an application area of 0.503 square meters at a spray height of 18 inches (43 cm) above the average plant canopy height. Control plants were sprayed in the same manner with the solvent blank.
(§3) The treated plants and control plants were placed in a greenhouse as described above and watered by subirrigation to prevent wash-off of the test compounds. After 14 d, the condition of the test plants as compared with that of the untreated plants was determined visually and scored on a scale of 0 to 100 percent where 0 corresponds to no injury and 100 corresponds to complete kill.
(§4) By applying the well-accepted probit analysis as described by J. Berkson in Journal of the […], 48, 565 (1953) and by D. Finney in “Probit Analysis” Cambridge University Press (1952), the above data can be used to calculate GR20, GR50 and GR80 values, which are defined as growth reduction factors that correspond to the effective dose of herbicide required to kill or control 20 percent, 50 percent or 80 percent, respectively, of a target plant.

[1] = tested on: ABUTH: velvetleaf (Abutilon theophrasti); conditions: Abutilon theophrasti, post-emergence, 336 h, read-out: Visual Growth Reduction (%)-14 Days after Application ABUTH; for pest or weed control at 140 g/ha: Table 3, 140 g ai/ha; for pest or weed control at 70 g/ha: Table 3, 70 g ai/ha
Method: as §1, §2, §3, §4

[2] = tested on: ECHCG: barnyardgrass (Echinochloa crus-galli); conditions: post-emergence, 336 h, read-out: Visual Growth Reduction (%)-14 Days after Application ECHCG; for pest or weed control at 140 g/ha: Table 3, 140 g ai/ha; for pest or weed control at 70 g/ha: Table 3, 70 g ai/ha
Method: as §1, §2, §3, §4

[3] = tested on: ORYSA: rice (Oryza sativa); conditions: post-emergence, 336 h, read-out: Visual Growth Reduction (%)-14 Days after Application ORYSA; for pest or weed control at 140 g/ha: Table 3, 140 g ai/ha; for pest or weed control at 70 g/ha: Table 3, 70 g ai/ha
Method: as §1, §2, §3, §4

[4] = tested on: CYPES: yellow nutsedge (Cyperus esculentus); conditions: post-emergence, 336 h, read-out: Visual Growth Reduction (%)-14 Days after Application CYPES; for pest or weed control at 140 g/ha: Table 3, 140 g ai/ha; for pest or weed control at 70 g/ha: Table 3, 70 g ai/ha
Method: as §1, §2, §3, §4

[5] = tested on: CHEAL: lambsquarters (Chenopodium album); conditions: Chenopodium album, post-emergence, 336 h, read-out: Visual Growth Reduction (%)-14 Days after Application CHEAL; for pest or weed control at 140 g/ha: Table 3, 140 g ai/ha; for pest or weed control at 70 g/ha: Table 3, 70 g ai/ha
Method: as §1, §2, §3, §4

[6] = tested on: EPHHL: wild poinsettia (Euphorbia heterophylla); conditions: post-emergence, 336 h, read-out: Visual Growth Reduction (%)-14 Days after Application EPHHL; for pest or weed control at 140 g/ha: Table 3, 140 g ai/ha; for pest or weed control at 70 g/ha: Table 3, 70 g ai/ha
Method: as §1, §2, §3, §4

| Compound | pest or weed control at 140 g/ha (ZEAMX: corn (Zea mays)) | pest or weed control at 140 g/ha [1] | pest or weed control at 140 g/ha [2] | pest or weed control at 140 g/ha [3] | pest or weed control at 140 g/ha [4] | pest or weed control at 140 g/ha [5] | pest or weed control at 140 g/ha [6] | other results |
| --- | --- | --- | --- | --- | --- | --- | --- | --- |
| C#Cc1ccc(-c2nc(C(=O)OC)c(OC)c(N)c2F)cc1 [Compound 30, methyl 4-amino-6-(4-ethynylphenyl)-5-fluoro-3-methoxypicolinate] | 70% | 50% | 0% | 0% | 100% | 100% | 100% | – |
| COC(=O)c1nc(-c2ccc(Cl)c(C(C)F)c2F)c(F)c(N)c1OC (stereo not drawn) [Compound 33, methyl 4-amino-6-(4-chloro-2-fluoro-3-(1-fluoroethyl)phenyl)-5-fluoro-3-methoxypicolinate] | 70% | 100% | 80% | 0% | 100% | 100% | 100% | – |
| COC(=O)c1nc(-c2ccc(C#N)cc2)c(F)c(N)c1OC [Compound 41] | 70% | 80% | 0% | 0% | 100% | 100% | 100% | – |
| COC(=O)c1nc(-c2ccc3c(c2F)OCO3)c(F)c(N)c1OC [Compound 42] | 75% | 60% | 0% | 0% | 10% | 90% | 100% | – |
| COc1c(C(=O)O)nc(Cl)c(F)c1N [Compound 51] | – | – | – | – | – | – | – | pest or weed control at 70 g/ha (ZEAMX: corn (Zea mays)): 0%; pest or weed control at 70 g/ha [1]: 0%; pest or weed control at 70 g/ha [2]: 0%; pest or weed control at 70 g/ha [3]: 0%; pest or weed control at 70 g/ha [4]: 0%; pest or weed control at 70 g/ha [5]: 90%; pest or weed control at 70 g/ha [6]: 100% |
| COc1c(C(=O)O)nc(-c2ccc(Br)c(F)c2F)c(F)c1N [Compound 54] | – | – | – | – | – | – | – | pest or weed control at 70 g/ha (ZEAMX: corn (Zea mays)): 85%; pest or weed control at 70 g/ha [1]: 90%; pest or weed control at 70 g/ha [2]: 90%; pest or weed control at 70 g/ha [3]: 5%; pest or weed control at 70 g/ha [4]: 100%; pest or weed control at 70 g/ha [5]: 90%; pest or weed control at 70 g/ha [6]: 100% |
| COc1c(C(=O)O)nc(-c2ccc(I)cc2)c(F)c1N [Compound 55] | – | – | – | – | – | – | – | pest or weed control at 132 g/ha (ZEAMX: corn (Zea mays); Table 3, 132 g ai/ha): 80%; pest or weed control at 132 g/ha ([1]; Table 3, 132 g ai/ha): 85%; pest or weed control at 132 g/ha ([2]; Table 3, 132 g ai/ha): 100%; pest or weed control at 132 g/ha ([3]; Table 3, 132 g ai/ha): 10%; pest or weed control at 132 g/ha ([4]; Table 3, 132 g ai/ha): 100%; pest or weed control at 132 g/ha ([5]; Table 3, 132 g ai/ha): 90%; pest or weed control at 132 g/ha ([6]; Table 3, 132 g ai/ha): 100% |
| COc1c(C(=O)O)nc(-c2ccc(Br)cc2F)c(F)c1N [Compound 61] | 75% | 80% | 95% | 10% | 100% | 100% | 100% | – |
| COc1c(C(=O)O)nc(-c2ccc(Cl)c(C(C)F)c2F)c(F)c1N (stereo not drawn) [Compound 65] | 70% | 100% | 65% | 0% | 100% | 100% | 100% | – |
| CCOC(=O)c1nc(-c2ccc(Cl)cc2F)cc(N)c1OCC(F)F [Compound 68] | – | – | – | – | – | – | – | pest or weed control at 180 g/ha (ZEAMX: corn (Zea mays); Table 3, 180 g ai/ha): 10%; pest or weed control at 180 g/ha ([1]; Table 3, 180 g ai/ha): 100%; pest or weed control at 180 g/ha ([2]; Table 3, 180 g ai/ha): 0%; pest or weed control at 180 g/ha ([3]; Table 3, 180 g ai/ha): 0%; pest or weed control at 180 g/ha ([4]; Table 3, 180 g ai/ha): 90%; pest or weed control at 180 g/ha ([5]; Table 3, 180 g ai/ha): 90%; pest or weed control at 180 g/ha ([6]; Table 3, 180 g ai/ha): 100% |
| COC(=O)c1nc(-c2ccc(Cl)cc2F)c(F)c(N)c1OC [Compound 69] | – | – | – | – | – | – | – | pest or weed control at 70 g/ha (ZEAMX: corn (Zea mays)): 10%; pest or weed control at 70 g/ha [1]: 85%; pest or weed control at 70 g/ha [2]: 30%; pest or weed control at 70 g/ha [3]: 0%; pest or weed control at 70 g/ha [4]: 100%; pest or weed control at 70 g/ha [5]: 0%; pest or weed control at 70 g/ha [6]: 100% |
| Nc1cc(-c2ccc(Cl)cc2F)nc(C(=O)O)c1OCC(F)(F)F [Compound 70] | – | – | – | – | – | – | – | pest or weed control at 280 g/ha (ZEAMX: corn (Zea mays); Table 3, 280 g ai/ha): 75%; pest or weed control at 280 g/ha ([1]; Table 3, 280 g ai/ha): 50%; pest or weed control at 280 g/ha ([2]; Table 3, 280 g ai/ha): 0%; pest or weed control at 280 g/ha ([3]; Table 3, 280 g ai/ha): 0%; pest or weed control at 280 g/ha ([4]; Table 3, 280 g ai/ha): 85%; pest or weed control at 280 g/ha ([5]; Table 3, 280 g ai/ha): 25%; pest or weed control at 280 g/ha ([6]; Table 3, 280 g ai/ha): 100% |

From patent US9518018B2, “3-alkoxy, thioalkyl and amino-4-amino-6-(substituted)picolinates and their use as herbicides” (Dow AgroSciences LLC, priority 2011, dated 2016)
